In US11413337B2, “Peptide conjugated particles for the treatment of inflammation” (Northwestern University, priority 2012, dated 2022):
Where no end group is shown, it is not given here.

Key:
[1] = test system: mediastinal lymph nodes; assay: OVA-specific in vitro recall responses from mediastinal lymph nodes; format: cell-based, mouse
From the text: Moreover treatment with OVA-PLG decreases the release of cytokines after restimulation with OVA.

[2] = test system: CD45.1 donor cells; assay: engraftment of male CD45.1 bone marrow cells in female CD45.2 mice; format: in vivo, mouse
From the text: Female CD45.2 mice were tolerized with either OVA-PLG or the control peptide Dby-PLG (the major H-Y antigen expressed by Male C57BL/6 mice) on day −7. On day −1, the mice were irradiated with 200 rads and were then transplanted with 1×10^6, 5×10^6, or 1×10^7 bone marrow cells from male CD45.1 mice on day 0. The recipient mice were then tolerized with either OVA-PLG, Dby-SP, or Dby-PLG on day 1 and the blood harvested for FACS analysis of chimerism.

[3] = test system: allergic airway inflammation; assay: therapeutic allergic airway inflammation, OVA/Alum; format: in vivo, mouse
Procedure: To test the therapeutic effect of OVA encapsulated in PLG particles on airway inflammation, mice were treated intraperitoneally with OVA/Alum at a dose of 10 μg/mouse on day 0 and day 14. The mice were intravenously administered with OVA-PLG on days 28, and 42. Between days 56-58, the mice were treated three times with aerosolized OVA.
The animals were treated as described above except that on days 28 and 42, the mice were treated with either OVA encapsulated in PLG particles, or OVA coupled to PLG particles.

[4] = test system: allergic airway inflammation; assay: prophylactic allergic airway inflammation, OVA/Alum; format: in vivo, mouse
Procedure: To test the prophylactic effect of OVA encapsulated in PLG particles on airway inflammation, mice were treated intravenously with OVA-PLG at day −7. On day 0, the mice received intraperitoneal injections of OVA/Alum at a dose of 10 μg/mouse. On day 7, the mice were again treated intravenously with OVA-PLG and received another 10 μg/mouse ip injection of OVA/Alum on day 14. Between days 28 and 30, the mice were treated three times with aerosolized OVA.

[5] = test system: Relapsing Experimental Autoimmune Encephalitis; assay: treatment of active R-EAE at day 10, route of administration; format: in vivo, mouse
Procedure: Experiments were conducted during development of embodiments of the present invention to investigate the ability of the PLG-PLP139-151 particles to treat disease rather than prevent disease, and to determine whether the route of administration affected the development of disease. Mice were immunized at day 0 with PLP139-151 and an adjuvant. Mice normally have maximal clinical scores at day 12-14. In this model, the mice were treated at day 10 with the PLG-PLP139-151 particles or with control PLG-OVA323-339 particles either via intravenous (iv) administration, intraperitoneal (ip) administration, subcutaneous (sc) administration, or orally. […] This is in contrast to animals treated with PLP139-151 polystyrene particles, whereby >70% of animals where observed to die from anaphylaxis.

[6] = test system: cervical spinal cord; assay: spinal cord histology and in vivo imaging in R-EAE; set-up: species or system mouse
Procedure: An additional therapeutic tolerance strategy was performed by delivering PLP139-151-PLG or OVA323-339 PLG to mice. […] Mice were treated with PLP-PLG or OVA323-339-PLG and the tissue was retrieved at day 40. The cervical spinal cord was isolated and sectioned to investigate the immune response within the CNS, which underlies the pathology of R-EAE and multiple sclerosis.
The clinical scores and percent incidence of EAE were determined (FIG. 10B) and the spinal cords observed via in vivo imaging (FIGS. 10A and 11). […] The bar graphs give the numerical numbers to the signal strength shown in the brain and SC scans.

[7] = test system: adoptive EAE; assay: adoptive transfer EAE treated with antigen-coupled PLG particles; format: in vivo, mouse; conditions: for mean clinical score: treated at day 2
Procedure: Experiments were conducted during development of embodiments of the present invention to investigate a second model of active disease termed adoptive transfer. Rather than immunizing the animals with the peptide, the lymphocytes from the spleen of mice with active disease were transferred to a recipient, who would subsequently develop disease. Experiments were conducted during development of embodiments of the present invention to characterize the ability of the PLG nanoparticles to deactivate the adoptively transferred activated effector cells.
Therapeutic tolerance induced by PLP139-151-PLG particles was compared in active and adoptive EAE. Adoptive EAE was induced in six to eight-week old female SJL/J mice by adoptive transfer of 2.5×10^6 PLP139-151-activated blasts. Mice were injected iv with PLP139-151 (squares) or OVA323-339 (circles) peptide coupled to 500 nm PLG nanoparticles 2 days (FIG. 14A) or 14 days (FIG. 14C) following disease induction. Clinical disease scores were compared to those following treatment with antigen-coupled splenocytes (FIG. 14A). Brain and spinal cord were collected from PLP139-151- or OVA323-339-tolerized mice for histological analysis on day 42. Sections from mice from panel A were stained for PLP protein and CD45 (FIG. 14B). Spinal cord sections from mice from panel C were stained with Luxol Fast Blue (FIG. 14D). Areas of demyelination and cellular infiltration are indicated by arrows.
SJL/J mice were injected i.v. with 500 nm PLG nanoparticles coupled with PLP139-151 (squares) or OVA323-339 (circles) 2 days following EAE induction by adoptive transfer. At the peak of disease (day 14) brains and spinal cords were removed and the number of lymphocytes (FIG. 16B), APCs (FIG. 16C), microglia (FIG. 16D), peripheral dendritic cells (FIG. 16E), myeloid dendritic cells (FIG. 16F) and macrophages (FIG. 16G) were enumerated by flow cytometry. The gating strategy for these populations is depicted in (FIG. 16A). CNS cell preparations were stimulated with PMA and ionomycin for 5 h prior to intracellular staining for IL-17A and IFN-γ (FIG. 16H).

[8] = test system: Relapsing Experimental Autoimmune Encephalitis (R-EAE); assay: prophylactic tolerance in PLP139-151/CFA-induced R-EAE, particles given day −7; format: in vivo, mouse; conditions: for clinical score: treated day −7
[9] = test system: SJL/J mice with EAE; assay: iv injection during EAE remission (day 21), anaphylaxis; format: in vivo, mouse; conditions: administration during remission, d21
Procedure: EAE was induced in six to eight week old female SJL/J mice by subcutaneous injection of PLP139-151 in CFA, and development of clinical disease was monitored and recorded (FIG. 5B). On d21 relative to disease induction, mice were given iv injections of soluble PLP139-151 (clear squares), soluble OVA323-339 (clear circles), or the same peptides coupled to PLG nanoparticles (solids). Temperature of animals was monitored and recorded every 10 minutes for 1 hour following injection (FIG. 5A).

[10] = test system: OVA/Alum pre-sensitized mice; assay: anaphylaxis-induced temperature drop in OVA/Alum pre-sensitized animals; format: in vivo, mouse; conditions: iv on day 28; within 1 hour of delivering
Procedure: Due to the presence of active disease, anaphylaxis to the antigens is a concern, which could result in immediate mortality, and has been described with polystyrene bound particles. Anaphylaxis is associated with a significant drop in body temperature. To test whether intravenous administration of OVA-PLG induces an anaphylaxis-induced temperature drop in pre-sensitized animals, mice were immunized at day 0 with 10 μg OVA/Alum via intraperitoneal injection. On day 14, the mice were again immunized with 10 μg OVA/Alum via intraperitoneal injection, and then tolerized with OVA-PLG administered intravenously on day 21. On day 28, the mice were then tolerized with either OVA-PLG particles or OVA via intravenous administration.

## OVA-PLG: OVA with PLG particles: coupled in Example 3, encapsulated in Examples 12 and 13, OVA323 peptide control in Example 16
[1]; after restimulation with 25 μg OVA
  lymph node proliferation: decreased
[1]; after restimulation with OVA
  levels of IL-4, IL-5, IL-13, and IL-10: decreased
[2]; Day −7, Day +1 group, FIG. 28
  engraftment, one mouse: 12%
[2]; tolerized day 1, FIG. 27
  engraftment (percent of donor CD45.1 cells), individual mice: ~10%
[3]
  eosinophils in the lung: reduced
  levels of serum OVA IgE: reduced
[3]; iv days 28 and 42
  secretion of IL-4, IL-5, IL-13 and IL-10: decreased
[4]
  eosinophils in the lung: reduced
  levels of serum OVA IgE: reduced
[4]; iv day −7 and day 7
  secretion of IL-4, IL-5, IL-13 and IL-10: decreased

## PLP139-151 polystyrene particles: PLP139-151 bound to polystyrene particles (CHCLGKWLGHPDK; cysteine pairing not given here; also: bound to polystyrene particles; UniProt P60202 139-151, looked up, fragment) [reference compound]
[5]; mouse, in vivo
  animals observed to die from anaphylaxis: > 70%

## PLP139-151-PLG: immunodominant proteolipid protein PLP139-151 epitope coupled to 500 nm PLG nanoparticles (CHCLGKWLGHPDK; cysteine pairing not given here; also: coupled to 500 nm PLG nanoparticles; UniProt P60202 139-151, looked up, fragment)
[6]; day 40
  immune cell infiltration within the spinal cord: reduction in immune cell infiltration
[6]; histological analysis, tissue retrieved at day 40
  cervical spinal cord inflammation and demyelination: inhibits cervical spinal cord inflammation and demyelination
[6]; in vivo imaging, Angiosense and prosense
  blood brain barrier (BBB) disruption and macrophage activation in the spinal cord: inhibits blood brain barrier (BBB) disruption and macrophage activation
[6]; spinal cord, day 40
  staining for CD45, CD4, and CD11b: minimal staining
[7]; adoptive EAE, iv 2 days following disease induction (FIG. 15B)
  disease (mean clinical score): reduced disease
[7]; iv 2 or 14 days following disease induction
  tolerance induction in adoptive EAE: tolerance is induced
[7]; iv day 2, peak of disease (day 14), flow cytometry
  infiltration of central nervous system immune cells: drastically reduced
[7]; all but two time points through day 40
  mean clinical score: 0
[7]; the other two time points
  mean clinical score: 0.25
[8]; day −7, FIGS. 3A and 3B
  down-regulating induction of R-EAE, by type of particle: more effective in down-regulating induction of R-EAE
[8]; to immunizing PLP139-151 epitope
  delayed-type hypersensitivity (DTH) responses: lack of delayed-type hypersensitivity (DTH) responses
[8]; all time points except days 20 to 30
  clinical score: 0
[8]; between days 20 and 30
  clinical score: under 1
[8]; treated day −7 relative to immunization
  prevention of disease induction: specifically prevented EAE development
[9]
  anaphylaxis-associated mortality: does not result in any anaphylaxis-associated mortality
[5]; active EAE, iv 10 days following disease induction (FIG. 15A)
  disease (mean clinical score): reduced disease
[5]; administered intravenously
  development of disease: did not develop disease
[5]; administered intravenously, at most time points
  mean clinical scores: 0
[5]; iv, ip, sc or oral, FIG. 7
  efficiency of tolerance by route of administration: most efficient when the PLG-PLP139-151 particles are administered either intravenously or intraperitoneally

B1: OVA-PLG: OVA with PLG particles: coupled in Example 3, encapsulated in Examples 12 and 13, OVA323 peptide control in Example 16 (conjugate, UniProt P01012 2-386, looked up)
Ovalbumin: GSIGAASMEFCFDVFKELKVHHANENIFYCPIAIMSALAMVYLGAKDSTRTQINKVVRFDKLPGFGDSIEAQCGTSVNVHSSLRDILNQITKPNDVYSFSLASRLYAEERYPILPEYLQCVKELYRGGLEPINFQTAADQARELINSWVESQTNGIIRNVLQPSSVDSQTAMVLVNAIVFKGLWEKAFKDEDTQAMPFRVTEQESKPVQMMYQIGLFRVASMASEKMKILELPFASGTMSMLVLLPDEVSGLEQLESIINFEKLTEWTSSNVMEERKIKVYLPRMKMEEKYNLTSVLMAMGITDVFSSSANLSGISSAESLKISQAVHAAHAEINEAGREVVGSAEAGVDAASVSEEFRADHPFLFCIKHIATNAVLFFGRCVSP
modifications: coupled to or encapsulated in PLG particles
[10]
  body temperature: No decrease in body temperature

B2: soluble OVA: soluble ovalbumin given intravenously (protein, UniProt P01012 2-386, looked up)
Ovalbumin: GSIGAASMEFCFDVFKELKVHHANENIFYCPIAIMSALAMVYLGAKDSTRTQINKVVRFDKLPGFGDSIEAQCGTSVNVHSSLRDILNQITKPNDVYSFSLASRLYAEERYPILPEYLQCVKELYRGGLEPINFQTAADQARELINSWVESQTNGIIRNVLQPSSVDSQTAMVLVNAIVFKGLWEKAFKDEDTQAMPFRVTEQESKPVQMMYQIGLFRVASMASEKMKILELPFASGTMSMLVLLPDEVSGLEQLESIINFEKLTEWTSSNVMEERKIKVYLPRMKMEEKYNLTSVLMAMGITDVFSSSANLSGISSAESLKISQAVHAAHAEINEAGREVVGSAEAGVDAASVSEEFRADHPFLFCIKHIATNAVLFFGRCVSP
[10]
  body temperature: decrease in temperature
